From US5798375A, “Treatment of arteriosclerosis and xanthoma” (Sankyo Company, Limited, priority 1995, dated 1998)

Assays:
WHHL rabbits [1] = assay: Example 1: incidence of xanthoma in the digital joints of WHHL rabbits; assay type: in vivo
Protocol: (§1) WHHL rabbits [2-3 months of age, the Watanabe heritable hyperlipidemic rabbit described in Biochimica et Biophysica Acta, 960, 294-302 (1988)] were randomly assigned to a control group (7 animals, group A), a group receiving pravastatin alone (5 animals, Group B), a group receiving troglitazone alone (7 animals, Group C), and a group receiving a combination of both active substances (6 animals, Group D). Pravastatin was administered orally by gavage at a dose of 50 mg/kg/day once-daily and troglitazone was given in the diet, containing 100 mg/kg of the substance for 32 weeks. The ingested amount was limited to a daily 120 g per rabbit. Blood was withdrawn from the animal immediately before starting the study and 4, 8, 12, 16, 20, 24, 28 and 32 weeks after starting the study and the total cholesterol levels (mg/dl) were determined for each blood sample. The levels are reported as a percentage (%) of the levels measured immediately before starting the study. The animals were sacrificed and necropsied at week 32 to examine (a) the percent lesion area (%) in the total, thoracic or abdominal portion of the aorta; (b) the stenosis (%) of the coronary arteries and (c) the incidence (%) of xanthoma in the digital joints.
(§2) The values actually measured are represented as an average value±standard error in those Tables.

[2] = tested on: coronary arteriosclerosis and xanthoma; conditions: literature: Biochim. Biophys. Acta 960, 294-302 (1988); Atherosclerosis 83, 69-80 (1990); cited from earlier work
WHHL rabbits [3] = assay: Example 1: percent lesion area of the aorta in WHHL rabbits; assay type: in vivo; conditions: week 32, mean ± standard error, pravastatin 50 mg/kg/day, troglitazone in diet containing 100 mg/kg, * p < 0.05 vs control
Protocol: as §1, §2

[4] = tested on: Male New Zealand white rabbits; assay: Example 3: regression of established atherosclerotic lesions in the cholesterol-fed rabbit model; assay type: in vivo; conditions: for Rate of lesion area, against the control group: figure in parentheses; for Rate of lesion area: thoracic aorta, two months, mean ± standard error, control 29 ± 20
Protocol: The rabbits were grouped randomly (3-9 animals per group) and the test samples were administered orally for two months, while they were fed with a normolipidaemic diet. […] The results are shown in terms of the percentage of lesion area in the thoracic aorta.

[5] = Example 1: plasma total cholesterol in WHHL rabbits; assay type: in vivo; conditions: pravastatin 50 mg/kg/day oral gavage, troglitazone in diet containing 100 mg/kg
Protocol: as §1

WHHL rabbits [6] = assay: Example 2: aortic cholesterol content; assay type: in vivo, Male WHHL rabbits
Protocol: (§3) Each test compound was administered for eight months to the rabbits in the form of an aqueous suspension (0.5% carboxymethylcellulose added). In the control group, a 0.5% carboxymethylcellulose solution only was administered.
The aortic cholesterol content was measured The tunica media and tunica intima at the aortic arch and at the thoracic and abdominal aorta were peeled away with tweezers and cut into pieces. The pieces were extracted with a 2:1 by volume mixture of chloroform and methanol.
The chloroform phase was separated and evaporated to dryness and the residue was dissolved in isopropanol. The total cholesterol and the free cholesterol were measured by a conventional enzymatic method.
Data are expressed by the mean plus or minus standard error (mg/g tissue). The values in parentheses indicate the percentage against the control. A significant difference against the control group was observed by the unpaired student t-test: […]

WHHL rabbits [7] = assay: Example 2: percentage area covered by lesions, aortic arch and whole aorta; assay type: in vivo, Male WHHL rabbits; set-up: Lesion Area, Aortic Arch, percentage against the control group / Lesion Area, Total Aorta, percentage against the control group: concentration or dose not given beside the values; conditions: oral, eight months
Protocol: as §3
The values actually measured are represented by the mean value plus or minus standard error. The numbers in parentheses represent the percentage lesion area against the control group.
*p<0.05, **p<0.01; significant difference against the control group under the [Mann-Whitney's U-Test A significant difference (p<0.05) was observed between Groups B and F, between Groups C and E and between Groups D and F at the aortic arch, and between Groups C and E over the total aorta.

WHHL rabbits [8] = assay: Example 2: average thickening of intima in aorta; assay type: in vivo, Male WHHL rabbits; set-up: Average thickening of intima, Aortic Arch, percentage against the control group / Average thickening of intima, Total Aorta, percentage against the control group: concentration or dose not given beside the values
Protocol: as §3
The values actually measured are represented as the mean value plus or minus a standard error (μm). The numbers in parentheses represent the percentage intimal thickening against the control group. A significant difference was observed between Groups D and F at the aortic arch, and between Groups C and E and between Groups D and F over the total aorta (p<0.05) under the Mann-Whitney's U-Test.
The average thickening of the intima is calculated by the cross-sectional area of the aortic tunica intima one section from the arch and two sections from the thoracic and abdominal portions, divided by the length of the tunica media.

WHHL rabbits [9] = assay: Example 1: stenosis of the coronary arteries in WHHL rabbits; assay type: in vivo; conditions: week 32
Protocol: as §1, §2

CC[C@H](C)C(=O)O[C@H]1C[C@H](O)C=C2C=C[C@H](C)[C@H](CC[C@@H](O)C[C@@H](O)CC(=O)O)[C@H]21 [Pravastatin, sodium 1,2,6,7,8,8a-hexahydro-6,8-tetrahydroxy-2-methyl-1-naphthaleneheptanoate]
Incidence of xanthoma, Foreleg (WHHL rabbits [1]; week 32, control 100 (14/14)): 80% | Incidence of xanthoma, Hind leg (WHHL rabbits [1]; week 32, control 100 (14/14)): 80% | Incidence of xanthoma, Total (WHHL rabbits [1]; week 32, control 100 (28/28)): 80% | prevention of coronary arteriosclerosis and xanthoma, efficacy [2]: may be prevented in rabbits receiving pravastatin, but its efficacy remains insufficient | Lesion area, Abdominal aorta (WHHL rabbits [3]; control 29.9 ± 4.4): 28.2 ± 8.1% | Lesion Area, Total Aorta (WHHL rabbits [3]; control 65.7 ± 3.9): 53.8 ± 8.2% | Lesion area, Thoracic aorta (WHHL rabbits [3]; control 79.3 ± 5.4): 64.6 ± 10.4% | Rate of lesion area, against the control group ([4]; 3 mg/kg): 103 | Rate of lesion area, against the control group ([4]; 5 mg/kg): 79 | Rate of lesion area ([4]; 3 mg/kg oral): 30 ± 12% | Rate of lesion area ([4]; 5 mg/kg oral): 23 ± 9% | total cholesterol level, % of level before starting the study ([5]; week 4): 87% | total cholesterol level, % of level before starting the study ([5]; week 8): 87% | total cholesterol level, % of level before starting the study ([5]; week 12): 81% | total cholesterol level, % of level before starting the study ([5]; week 16): 81% | total cholesterol level, % of level before starting the study ([5]; week 20): 75% | total cholesterol level, % of level before starting the study ([5]; week 24): 68% | total cholesterol level, % of level before starting the study ([5]; week 28): 68% | total cholesterol level, % of level before starting the study ([5]; week 32): 60% | Cholesterol level of Thoracic and Abdominal Aorta, Esterified (WHHL rabbits [6]; mean ± standard error, control 5.3 ± 1.7): 4.7 ± 0.7 mg/g tissue | Cholesterol Content of Aortic Arch, Esterified (WHHL rabbits [6]; mean ± standard error, control 6.5 ± 1.4, *p < 0.05): 6.4 ± 1.1 mg/g tissue | Cholesterol level of Thoracic and Abdominal Aorta, Free (WHHL rabbits [6]; mean ± standard error, control 14.8 ± 2.3, *p < 0.05 vs control): 12.5 ± 1.3 mg/g tissue | Cholesterol level of Thoracic and Abdominal Aorta, Total (WHHL rabbits [6]; mean ± standard error, control 20.1 ± 2.3, *p < 0.05, **p < 0.02 vs control): 17.2 ± 1.6 mg/g tissue | Cholesterol Content of Aortic Arch, Free (WHHL rabbits [6]; mean ± standard error, control 20.6 ± 2.9): 18.6 ± 4.4 mg/g tissue | Cholesterol Content of Aortic Arch, Total (WHHL rabbits [6]; mean ± standard error, control 27.1 ± 3.3): 24.9 ± 5.2 mg/g tissue | Cholesterol Content of Aortic Arch, Esterified, percentage against the control (WHHL rabbits [6]; number in parentheses): 98% | Cholesterol Content of Aortic Arch, Free, percentage against the control (WHHL rabbits [6]; number in parentheses): 90% | Cholesterol Content of Aortic Arch, Total, percentage against the control (WHHL rabbits [6]; number in parentheses): 92% | Cholesterol level of Thoracic and Abdominal Aorta, Esterified, percentage against the control (WHHL rabbits [6]; number in parentheses): 89% | Cholesterol level of Thoracic and Abdominal Aorta, Free, percentage against the control (WHHL rabbits [6]; number in parentheses): 84% | Cholesterol level of Thoracic and Abdominal Aorta, Total, percentage against the control (WHHL rabbits [6]; number in parentheses): 86% | Lesion Area, Aortic Arch, percentage against the control group (WHHL rabbits [7]; number in parentheses): 72% | Lesion Area, Total Aorta, percentage against the control group (WHHL rabbits [7]; number in parentheses): 70% | Lesion Area, Total Aorta (WHHL rabbits [7]; pravastatin 50, pioglitazone 20, Compound A 10 mg/kg, mean ± standard error, *p<0.05, **p<0.01 vs control): 35 ± 6% | Lesion Area, Aortic Arch (WHHL rabbits [7]; pravastatin 50, pioglitazone 20, Compound A 10 mg/kg, mean ± standard error, control 82 ± 5, *p<0.05, **p<0.01 vs control): 59 ± 11% | suppression of intimal thickening (WHHL rabbits [8]; combinations compared with Groups C and D): slight suppression of intimal thickening | Average thickening of intima, Aortic Arch, percentage against the control group (WHHL rabbits [8]; number in parentheses): 82% | Average thickening of intima, Total Aorta, percentage against the control group (WHHL rabbits [8]; number in parentheses): 82% | Average thickening of intima in aorta, Total Aorta (WHHL rabbits [8]; oral, eight months, pravastatin 50, pioglitazone 20, Compound A 10 mg/kg, mean ± standard error, control 154 ± 33): 126 ± 22 μm | Average thickening of intima in aorta, Aortic Arch (WHHL rabbits [8]; oral, eight months, pravastatin 50, pioglitazone 20, Compound A 10 mg/kg, mean ± standard error, control 237 ± 63): 194 ± 42 μm | Coronary stenosis, RCA (right coronary artery) (WHHL rabbits [9]; control 13): 18% | Coronary stenosis, LAD (left anterior descending artery) (WHHL rabbits [9]; control 24): 16% | Coronary stenosis, LSP (left septal artery) (WHHL rabbits [9]; control 40): 9% | Coronary stenosis, LCX (left circumflex artery) (WHHL rabbits [9]; control 47): 34% | Coronary stenosis, MLC (main left coronary artery) (WHHL rabbits [9]; control 61): 71% | Coronary stenosis, MRC (main right coronary artery) (WHHL rabbits [9]; control 79): 81%
